Experimental data taken from paper PMC7377239, “Cardiovascular Effects of Polychlorinated Biphenyls and Their Major Metabolites” (Environmental Health Perspectives, 2020).
Read-outs that look alike come from different tables or passages of the source.

Tested on: iCell cardiomyocytes (human iPSC-derived cardiomyocytes)
Experiment: High-content imaging of cytotoxicity and mitochondrial integrity in iPSC-CMs
Format: cell-based
Conditions: Homo sapiens, Cardiomyocyte; for viability at 0.01 µM / activity at 0.01 µM / viability at 0.1 µM / activity at 0.1 µM / viability at 1 µM / activity at 1 µM / viability at 10 µM / activity at 10 µM / viability at 100 µM / activity at 100 µM: 0.00 µM = 100.00; for viability at 0.1 µM / activity at 0.1 µM: 0.10 µM
Procedure, shortened: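 This assay measured cytotoxicity and mitochondrial integrity in iPSC cardiomyocytes held in 40μL maintenance medium. After compound exposure, a 2× staining solution with Hoechst 33342 (4μg/mL) and MitoTracker™ Orange (0.4μM) was applied for 15 min at 37°C. Cells were washed, fixed with 3.7% formaldehyde, imaged on DAPI and Cy3 channels, and scored in MetaXpress®.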

[1] = 1.5 h, 90min, read-out: cm.cam.90min
[2] = 1.5 h, 90min, read-out: cm.mii.90min
[3] = 1.5 h, 90min, read-out: cm.mito.90min
[4] = 1.5 h, 90min, read-out: cm.tc.90min
[5] = 24 h, 24hrs, read-out: cm.cam.24hrs
[6] = 24 h, 24hrs, read-out: cm.mii.24hrs
[7] = 24 h, 24hrs, read-out: cm.mito.24hrs
[8] = 24 h, 24hrs, read-out: cm.tc.24hrs

Compound: Clc1ccc(Cl)c(-c2cc(Cl)ccc2Cl)c1 [PCB52]
- viability at 0.01 µM [1]: 98.6%
- activity at 0.01 µM [2]: 115%
- activity at 0.01 µM [3]: 98.4%
- viability at 0.01 µM [4]: 98.4%
- viability at 0.1 µM [1]: 95.8%
- activity at 0.1 µM [2]: 118%
- activity at 0.1 µM [3]: 95.7%
- viability at 0.1 µM [4]: 95.6%
- viability at 1 µM [1]: 101%
- activity at 1 µM [2]: 107%
- activity at 1 µM [3]: 102%
- viability at 1 µM [4]: 102%
- viability at 10 µM [1]: 106%
- activity at 10 µM [2]: 94.2%
- activity at 10 µM [3]: 106%
- viability at 10 µM [4]: 106%
- viability at 100 µM [1]: 0.44%
- activity at 100 µM [2]: 12.8%
- activity at 100 µM [3]: 0.55%
- viability at 100 µM [4]: 1.04%
- minimal effective concentration (1.5 h, 90min, read-out: cm.cam.90min POD): 36 µM
- minimal effective concentration (1.5 h, 90min, read-out: cm.mii.90min POD): 10.4 µM
- minimal effective concentration (1.5 h, 90min, read-out: cm.mito.90min POD): 39.2 µM
- minimal effective concentration (1.5 h, 90min, read-out: cm.tc.90min POD): 38.9 µM
- viability at 0.01 µM [5]: 93.5%
- activity at 0.01 µM [6]: 103%
- activity at 0.01 µM [7]: 91.8%
- viability at 0.01 µM [8]: 94.3%
- viability at 0.1 µM [5]: 98.9%
- activity at 0.1 µM [6]: 117%
- activity at 0.1 µM [7]: 99.3%
- viability at 0.1 µM [8]: 98.8%
- viability at 1 µM [5]: 95.8%
- activity at 1 µM [6]: 112%
- activity at 1 µM [7]: 95.8%
- viability at 1 µM [8]: 96.3%
- viability at 10 µM [5]: 92%
- activity at 10 µM [6]: 103%
- activity at 10 µM [7]: 90.3%
- viability at 10 µM [8]: 92.3%
- viability at 100 µM [5]: 3.37%
- activity at 100 µM [6]: 5.38%
- activity at 100 µM [7]: 0.14%
- viability at 100 µM [8]: 7.71%
- minimal effective concentration (24 h, read-out: cm.cam.24hrs POD): 7.5 µM
- minimal effective concentration (24 h, read-out: cm.mii.24hrs POD): 34.4 µM
- minimal effective concentration (24 h, read-out: cm.mito.24hrs POD): 7.32 µM
- minimal effective concentration (24 h, read-out: cm.tc.24hrs POD): 8.11 µM
